Measurements reported in the COVID Moonshot data (paper PMC7615835).
Several values for one entry are separate records, joined by “and”; a condition that tells them apart may be missing. Equal values may be shown once.

What was measured:
[1] = target: SARS-CoV-2 Main Protease (SARS-CoV-2) (UniProt P0DTD1)
[2] = in vivo, iv, 0.5 mg/kg

| SMILES | IC50 [1] | AUC(0-inf) ([2]; rat) | AUC(0-t) ([2]; rat) | C0 ([2]; rat) | MRT inf ([2]; rat) | MRT last ([2]; rat) | Vd ([2]; rat) | clearance ([2]; rat) | half-life ([2]; rat) | other results |
| --- | --- | --- | --- | --- | --- | --- | --- | --- | --- | --- |
| CS(=O)(=O)N1Cc2ccc(Cl)cc2C(C(=O)Nc2cncc3cccc(F)c23)C1 (stereo not drawn) | 951 nM | 110 ng·h/mL and 136 ng·h/mL | 107 ng·h/mL and 134 ng·h/mL | 332 ng/mL and 376 ng/mL | 25.8 min and 25.9 min | 22.9 min and 23.5 min | 1.57 L/kg and 1.26 L/kg | 60.6 mL/min/kg and 48.6 mL/min/kg | 23.9 min and 20.4 min |  |
| O=C(Nc1cncc2ccncc12)C1CCNc2cc(Cl)c(Cl)cc21 (stereo not drawn) |  |  |  |  |  |  |  |  |  | CC50 (a549): > 9.99 µM |
| Cc1nnc(CN2Cc3ccc(Cl)cc3C(C(=O)Nc3cncc4ccccc34)C2)[nH]1 (stereo not drawn) | 750 nM | 143 ng·h/mL and 182 ng·h/mL | 142 ng·h/mL and 178 ng·h/mL | 621 ng/mL and 588 ng/mL | 28.7 min and 20.8 min | 19.7 min and 25.8 min | 1.21 L/kg and 1.32 L/kg | 58.3 mL/min/kg and 46.8 mL/min/kg | 18.7 min and 22.1 min |  |
| COC1(C(=O)Nc2cncc3ccc(S(C)(=O)=O)cc23)CCOc2ccc(Cl)cc21 (stereo not drawn) | 426 nM and 423 nM |  |  |  |  |  |  |  |  | AUC(0-inf) ([2]; mouse): 51.9 ng·h/mL and 61.9 ng·h/mL; AUC(0-t) ([2]; mouse): 50.3 ng·h/mL; C0 ([2]; mouse): 142 ng/mL and 157 ng/mL; MRT inf ([2]; mouse): 31.3 min and 26.9 min; MRT last ([2]; mouse): 27.4 min and 24.5 min; Vd ([2]; mouse): 5.03 L/kg and 3.65 L/kg; clearance ([2]; mouse): 161 mL/min/kg and 135 mL/min/kg; half-life ([2]; mouse): 25.3 min and 22.1 min |
| COc1ccc2cncc(NC(=O)[C@H]3CCNc4cc(Cl)c(Cl)cc43)c2c1 (stereo in doubt) | < 50 nM and 82.3 nM and 53.6 nM |  |  |  |  |  |  |  |  | AUC(0-inf) ([2]; mouse): 113 ng·h/mL and 130 ng·h/mL; AUC(0-t) ([2]; mouse): 113 ng·h/mL and 128 ng·h/mL; C0 ([2]; mouse): 179 ng/mL and 202 ng/mL; MRT inf ([2]; mouse): 28.6 min and 30.8 min; MRT last ([2]; mouse): 27.6 min and 28.9 min; Vd ([2]; mouse): 2.09 L/kg and 1.97 L/kg; clearance ([2]; mouse): 73.4 mL/min/kg and 64 mL/min/kg; half-life ([2]; mouse): 16.1 min and 19.4 min |
| O=C(Cc1cccc(Cl)c1)Nc1cnc2ccccn12 | 8030 nM | 285 ng·h/mL and 249 ng·h/mL | 284 ng·h/mL and 247 ng·h/mL | 663 ng/mL and 588 ng/mL | 26.8 min and 26.9 min | 26.4 min and 25.6 min | 0.788 L/kg and 0.895 L/kg | 29.2 mL/min/kg and 33.5 mL/min/kg | 25.6 min and 22.8 min |  |
| O=C(Cc1cccc(Cl)c1)Nc1cnccc1C1CC1 | 7170 nM | 77 ng·h/mL and 54.5 ng·h/mL | 74.1 ng·h/mL and 53.2 ng·h/mL | 260 ng/mL and 176 ng/mL | 20.7 min and 17.8 min | 15.4 min and 18.5 min | 1.92 L/kg and 3.14 L/kg | 108 mL/min/kg and 153 mL/min/kg | 12.5 min and 15.8 min |  |
| C=CC(=O)N(C(=O)C1CCOc2ccc(Cl)cc21)c1cncc2ccccc12 (stereo not drawn) |  |  |  |  |  |  |  |  |  | CC50 (a549): > 10 µM |
| CNS(=O)(=O)N1Cc2ccc(Cl)cc2C(C(=O)Nc2cncc3ccccc23)C1 (stereo not drawn) | 149 nM | 185 ng·h/mL and 255 ng·h/mL and 157 ng·h/mL | 183 ng·h/mL and 254 ng·h/mL and 155 ng·h/mL | 507 ng/mL and 850 ng/mL and 519 ng/mL | 31.6 min and 38.9 min and 23.9 min | 36.1 min and 30.6 min and 22.1 min | 1.75 L/kg and 1.07 L/kg and 1.5 L/kg | 45.1 mL/min/kg and 33.3 mL/min/kg and 62.7 mL/min/kg | 41 min and 32.2 min and 20 min |  |
| C=CC(=O)N(C(=O)[C@H]1CCOc2ccc(Cl)cc21)c1cncc2ccccc12 (stereo in doubt) |  |  |  |  |  |  |  |  |  | CC50 (a549): > 9.99 µM; CC50 (vero): > 9.99 µM |
| O=C(Cn1nc2n(c(=O)c1=O)CCC2)NC(C(=O)Nc1cncc2ccccc12)c1cccc(Cl)c1 (stereo not drawn) |  |  |  |  |  |  |  |  |  | CC50 (vero): > 9.99 µM |
| O=C(Nc1cncc2ccccc12)C1CN(S(=O)(=O)CCO)Cc2ccc(Cl)cc21 (stereo not drawn) | 232 nM | 241 ng·h/mL and 283 ng·h/mL | 236 ng·h/mL and 280 ng·h/mL | 441 ng/mL and 590 ng/mL | 56.2 min and 49.7 min | 44.2 min and 52.6 min | 1.72 L/kg and 1.66 L/kg | 34.6 mL/min/kg and 29.6 mL/min/kg | 47.1 min and 72.6 min |  |
| O=C1NCC(C(=O)Nc2cncc3ccccc23)c2cc(Cl)ccc21 (stereo not drawn) | 208 nM | 377 ng·h/mL and 428 ng·h/mL and 182 ng·h/mL | 374 ng·h/mL and 422 ng·h/mL and 180 ng·h/mL | 443 ng/mL and 648 ng/mL and 439 ng/mL | 57.1 min and 75 min and 37.4 min | 71.4 min and 53 min and 35 min | 1.66 L/kg and 1.12 L/kg and 1.75 L/kg | 22.1 mL/min/kg and 19.5 mL/min/kg and 46.8 mL/min/kg | 64.8 min and 52 min and 34.7 min |  |
| O=C(Nc1cncc2cc(F)ccc12)C1CCS(=O)(=O)c2ccc(Cl)cc21 (stereo not drawn) | 770 nM | 875 ng·h/mL and 1050 ng·h/mL | 869 ng·h/mL and 1030 ng·h/mL | 655 ng/mL and 704 ng/mL | 118 min and 107 min | 104 min and 111 min | 1.03 L/kg and 0.95 L/kg | 9.52 mL/min/kg and 8.12 mL/min/kg | 69.6 min and 78 min |  |
| C=CC(=O)N(C(=O)[C@@H]1CCOc2ccc(Cl)cc21)c1cncc2ccccc12 (stereo in doubt) |  |  |  |  |  |  |  |  |  | CC50 (a549): > 9.99 µM; CC50 (vero): > 9.99 µM |
| Cn1ncc2cncc(NC(=O)Cc3cccc(Cl)c3)c21 | 1500 nM | 178 ng·h/mL and 250 ng·h/mL | 178 ng·h/mL and 248 ng·h/mL | 820 ng/mL and 1030 ng/mL | 19.3 min and 15.2 min | 14.9 min and 18.1 min | 0.709 L/kg and 0.64 L/kg | 46.7 mL/min/kg and 34.6 mL/min/kg | 14.9 min and 17.9 min |  |
| N#CCC(=O)N1Cc2ccc(Cl)cc2C(C(=O)Nc2cncc3ccccc23)C1 (stereo not drawn) | 204 nM | 128 ng·h/mL and 148 ng·h/mL | 124 ng·h/mL and 144 ng·h/mL | 404 ng/mL and 370 ng/mL | 28.7 min and 29.3 min | 24.5 min and 25.6 min | 1.61 L/kg and 1.36 L/kg | 54.8 mL/min/kg and 47.4 mL/min/kg | 25.4 min and 22 min |  |

| SMILES | IC50 [1] | AUC(0-inf) ([2]; rat) | AUC(0-t) ([2]; rat) | C0 ([2]; rat) | MRT inf ([2]; rat) | MRT last ([2]; rat) | Vd ([2]; rat) | clearance ([2]; rat) | half-life ([2]; rat) | other results |
| --- | --- | --- | --- | --- | --- | --- | --- | --- | --- | --- |
| O=C(Cc1cccc(Cl)c1)Nc1cncc2c(F)cccc12 | 890 nM | 140 ng·h/mL and 138 ng·h/mL | 139 ng·h/mL and 136 ng·h/mL | 515 ng/mL and 498 ng/mL | 19.8 min and 20.1 min | 19.1 min and 18.7 min | 1.02 L/kg | 50.8 mL/min/kg and 51.6 mL/min/kg | 17.4 min and 18.2 min |  |
| O=C1CC(C(=O)Nc2cncc3ccccc23)c2cc(Cl)c(Cl)cc2N1 (stereo not drawn) | 196 nM and 356 nM |  |  |  |  |  |  |  |  | AUC(0-inf) ([2]; mouse): 199 ng·h/mL and 230 ng·h/mL; AUC(0-t) ([2]; mouse): 197 ng·h/mL and 226 ng·h/mL; C0 ([2]; mouse): 268 ng/mL and 390 ng/mL; MRT inf ([2]; mouse): 44.9 min and 49.9 min; MRT last ([2]; mouse): 42.4 min and 45.4 min; Vd ([2]; mouse): 1.88 L/kg and 1.81 L/kg; clearance ([2]; mouse): 41.9 mL/min/kg and 36.2 mL/min/kg; half-life ([2]; mouse): 34.4 min and 43.6 min |
| O=C(Nc1cncc2cc(Cl)ccc12)C1CCS(=O)(=O)c2ccc(Cl)cc21 (stereo not drawn) | 838 nM | 2140 ng·h/mL and 2940 ng·h/mL | 1940 ng·h/mL and 2700 ng·h/mL | 769 ng/mL and 1200 ng/mL | 193 min and 199 min | 148 min and 151 min | 0.774 L/kg and 0.556 L/kg | 3.9 mL/min/kg and 2.9 mL/min/kg | 141 min and 133 min |  |
| COC(=O)CNC(=O)C(c1cccnc1)N(C(=O)c1cocn1)c1ccc(C(C)(C)C)cc1 (stereo not drawn) | 10800 nM |  |  |  |  |  |  |  |  |  |
| O=C(Nc1n[nH]c2ccnc(Br)c12)C1CCOc2ccc(Cl)cc21 (stereo not drawn) | > 99500 nM |  |  |  |  |  |  |  |  |  |
| Cc1ccc(C)c(S(=O)(=O)N2CCN(C(=O)CCl)CC2)c1 | 14200 nM |  |  |  |  |  |  |  |  |  |
| Cc1csc2ncc(C(=O)N3C4CCC3c3ccccc34)c(=O)n12 | > 99500 nM |  |  |  |  |  |  |  |  |  |
| O=C(NCCc1cccc(F)c1)C(c1cccnc1)N(C(=O)c1cnc[nH]1)c1cnc(C2CCC2)nc1 (stereo not drawn) | > 99000 nM |  |  |  |  |  |  |  |  |  |
| COc1cccc2[nH]c(=O)cc(C(=O)NCCOc3ccccc3OCC3CC3)c12 |  |  |  |  |  |  |  |  |  | CC50 (a549): > 10 µM |
| O=C(Cc1cccc(Cl)c1)Nc1cncc2cn[nH]c12 | 2100 nM | 216 ng·h/mL and 364 ng·h/mL | 216 ng·h/mL and 356 ng·h/mL | 986 ng/mL and 1030 ng/mL | 25.6 min and 15.7 min | 15.4 min and 23.3 min | 0.604 L/kg and 0.594 L/kg | 38.6 mL/min/kg and 25.6 mL/min/kg | 14.4 min and 19.9 min |  |
| O=C(O)CCc1cc2c(cc1S(=O)(=O)N1CCN(c3ccccc3)CC1)OCO2 | > 99500 nM |  |  |  |  |  |  |  |  |  |
| Cc1ccncc1NC(=O)Nc1cccc(Cl)c1 | 68000 nM and 61000 nM |  |  |  |  |  |  |  |  |  |
| CS(=O)(=O)c1ccc2c(NC(=O)C3CCS(=O)(=O)c4ccc(Cl)cc43)cncc2c1 (stereo not drawn) | 744 nM |  |  |  |  |  |  |  |  |  |
| CNC(=O)CN1CC2(CCN(c3cncc4cccc(Cl)c34)C2=O)c2cc(Cl)ccc2C1=O (stereo not drawn) | 1670 nM |  |  |  |  |  |  |  |  |  |
| CCOC(=O)CNC(=O)C(c1cccnc1)N(C(=O)c1cocn1)c1ccc(C(C)(C)C)cc1 (stereo not drawn) | 9530 nM |  |  |  |  |  |  |  |  |  |
| COc1ncc(Nc2cc(Cl)cc(CC(=O)Nc3cncc4ccccc34)c2)cc1Br | 1740 nM |  |  |  |  |  |  |  |  |  |
